Assay results: PMC7280531, “A PROTAC peptide induces durable β-catenin degradation and suppresses Wnt-dependent intestinal cancer” (Cell Discovery, 2020)
Where a SMILES comes first, the peptide text is derived from it. Bridges are numbered along the chain shown (N, C = ends). [ ]: non-standard residue; d: D form. The star is where a group is joined. R8 = C=CCCCCCC[C@@](C)(N)C(=O)O; S5 = C=CCCC[C@](C)(N)C(=O)O; Cbz = O=C(OCc1ccccc1)*; Ahx = NCCCCCC(=O)O

Assays:
β-catenin [1] = target: T1, β-catenin (Homo sapiens, UniProt P35222); experiment: β-catenin immunoblotting / immunoprecipitation in HEK293T cells
T1 sequence (P35222 1-781): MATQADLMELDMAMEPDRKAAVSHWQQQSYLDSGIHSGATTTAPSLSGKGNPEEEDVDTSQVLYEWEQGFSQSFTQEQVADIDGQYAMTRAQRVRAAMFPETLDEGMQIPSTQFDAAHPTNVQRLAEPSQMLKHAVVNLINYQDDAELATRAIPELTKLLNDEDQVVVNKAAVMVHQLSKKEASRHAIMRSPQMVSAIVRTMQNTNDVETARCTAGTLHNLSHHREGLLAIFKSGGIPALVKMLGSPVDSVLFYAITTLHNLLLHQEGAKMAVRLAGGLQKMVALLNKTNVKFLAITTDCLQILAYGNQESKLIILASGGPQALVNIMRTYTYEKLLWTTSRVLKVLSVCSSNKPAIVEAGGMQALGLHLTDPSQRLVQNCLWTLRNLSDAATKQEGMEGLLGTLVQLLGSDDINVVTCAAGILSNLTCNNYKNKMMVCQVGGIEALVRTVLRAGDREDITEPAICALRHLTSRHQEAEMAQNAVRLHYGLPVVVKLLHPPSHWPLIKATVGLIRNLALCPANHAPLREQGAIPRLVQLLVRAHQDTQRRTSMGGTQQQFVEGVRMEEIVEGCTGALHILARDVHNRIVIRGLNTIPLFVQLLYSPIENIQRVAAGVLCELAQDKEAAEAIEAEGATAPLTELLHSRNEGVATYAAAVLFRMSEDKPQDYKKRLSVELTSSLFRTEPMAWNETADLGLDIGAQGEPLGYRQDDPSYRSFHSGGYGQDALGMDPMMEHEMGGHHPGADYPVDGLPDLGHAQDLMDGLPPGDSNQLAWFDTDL
Procedure: The relative band intensity was quantified with ImageJ and normalized to GAPDH.
For immunoprecipitation, the cells were lysed in TNE lysis buffer (50 mM Tris-HCl, pH 8.0, 150 mM NaCl, 1% Nonidet P-40, and protease inhibitor cocktail). […] After 18,000×g centrifugation for 10 min, the lysates were immunoprecipitated with specific antibody and protein A-Sepharose beads and then washed the beads with TNE buffer for three times before immunoblotting.

β-catenin [2] = experiment: β-catenin immunoblotting in colorectal cancer cells (HCT116, SW480, LoVo); type: cell-based; settings: 50 μM xStAx-VHLL, 24 h
Procedure: Relative
β-catenin protein level was quantified with ImageJ and normalized to GAPDH. Data […]
(b) LoVo cells were treated with 50 μM xStAx (xS), 50 μM
immunoblotting. (c, d) LoVo (c) and SW480 (d) cells were treated with different

APC^−/− organoids = experiment: APC^−/− mouse intestinal organoid culture; type: cell-based; settings: 10 μM MSAB or 50 μM xStAx-VHLL, 4 days
[3] = cited from earlier work
Source text: Peptide stapling chemistry developed by Verdine and coworkers, takes advantage of ruthenium-catalyzed metathesis to crosslink the side chains of paired anchoring residues at suitable positions, and has been successfully applied to design various peptide inhibitors with improved proteolytic stability, membrane permeability, and thus biological activity[11],[12]. Modeled after the same Axin-derived peptide motif, we and Verdine la ... || There is more space for the improvement of the working efficacy of xStAx-VHLL. The VHL peptide ligand inserted in this study consists of natural amino acids, which could be degraded once the PROTAC peptide enters the cell. Non-natural residues substitution instead of original ones, such as reported hydroxyproline to replace regular proline[31],[32], could be an effective approach to enhance the proteolytic resistance of PROTAC. It was previously reported that peptide double-stapling at both N-terminals and C-terminals rather than single stapling conferred striking protease resistance upon the ...

β-catenin (133-665) = target: T2, β-catenin (133-665) (Homo sapiens, UniProt P35222); experiment: Isothermal titration calorimetry (ITC) of peptides with purified β-catenin
T2 sequence (P35222 133-665): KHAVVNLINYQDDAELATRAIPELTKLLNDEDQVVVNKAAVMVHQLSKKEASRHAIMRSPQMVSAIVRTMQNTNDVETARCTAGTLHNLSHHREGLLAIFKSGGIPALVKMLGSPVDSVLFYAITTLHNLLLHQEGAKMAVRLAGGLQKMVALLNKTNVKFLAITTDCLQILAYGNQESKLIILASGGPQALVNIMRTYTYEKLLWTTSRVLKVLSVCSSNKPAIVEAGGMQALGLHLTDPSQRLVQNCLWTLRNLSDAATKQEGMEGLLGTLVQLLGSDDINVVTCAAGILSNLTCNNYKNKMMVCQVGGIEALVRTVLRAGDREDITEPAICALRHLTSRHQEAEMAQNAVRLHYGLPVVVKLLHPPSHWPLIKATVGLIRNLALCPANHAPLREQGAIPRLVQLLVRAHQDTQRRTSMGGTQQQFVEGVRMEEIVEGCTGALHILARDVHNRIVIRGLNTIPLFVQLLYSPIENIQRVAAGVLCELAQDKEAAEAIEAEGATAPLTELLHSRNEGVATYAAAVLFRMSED
Procedure: The binding ability of the peptides with purified
β-catenin protein in vitro.
(a) Isothermal titration calorimetry (ITC) analysis to measure the interaction between
Biotinylated peptides were incubated with streptavidin beads and then employed to
The input β-catenin protein level
was stained with Coomassie brilliant blue. The pulled down β-catenin was
immunoblotted with anti-His antibody, and relative band intensity was quantified.

## CC(C)C[C@@H](C=O)NC(=O)[C@H](CC(C)C)NC(=O)[C@H](CC(C)C)NC(=O)OCc1ccccc1 [MG132, reference compound] (Cbz-Leu-Leu-Leu-aldehyde)
β-catenin [1]; peptides 70 μM and MG132 10 μM, 16 h
  effect of proteasome inhibitor on xStAx-VHLL-induced β-catenin degradation: blocked β-catenin degradation

## COC(=O)c1cccc(NS(=O)(=O)c2ccc(C)cc2)c1 [MSAB, reference compound]
β-catenin [2]; HCT116 and SW480, 10 μM MSAB
  β-catenin protein level, MSAB versus xStAx-VHLL: decreased β-catenin protein to a comparable level
β-catenin [2]; LoVo, 10 μM MSAB
  β-catenin protein level, MSAB versus xStAx-VHLL: had no effect
APC^−/− organoids
  APC^−/− organoid survival, MSAB versus xStAx-VHLL: minimal effect
β-catenin [1]; 10 μM MSAB, 50 μM xStAx-VHLL (legend: 70 μM, Wnt3a CM), 24 h
  β-catenin protein level, MSAB versus xStAx-VHLL: decreased β-catenin protein to a comparable level
β-catenin [1]; MSAB 10 μM or xStAx-VHLL 70 μM 24 h, then fresh medium 24 or 48 h
  β-catenin level after wash-out of the drug: restored after 24 h

## CC[C@H](C)[C@@H]1NC(=O)[C@](C)(NC(=O)[C@H](CCC(N)=O)NC(=O)[C@@H]2CCCN2C(C)=O)CCCCCCC=CCCC[C@@](C)(C(=O)N[C@@H](CCCNC(=N)N)C(=O)N[C@H](C(=O)N[C@@H](CCSC)C(=O)N[C@@H](CCCCN)C(N)=O)C(C)C)NC(=O)[C@H](C(C)C)NC(=O)[C@H](Cc2c[nH]cn2)NC(=O)[C@H](CCC(N)=O)NC(=O)[C@H](CC(=O)O)NC(=O)[C@H](CC(C)C)NC1=O [SAHPA1, reference compound] (Ac-PQ[R8]ILDQHV[S5]RVMK-NH2; staple 3-10)
[3]
  ability to penetrate the cell membrane: capable of penetrating the cell membrane
β-catenin (133-665)
  Kd: 38 µM

## CC[C@H](C)[C@@H]1NC(=O)[C@](C)(NC(=O)[C@H](CCC(N)=O)NC(=O)[C@@H]2CCCN2C(C)=O)CCCCCCC=CCCC[C@@](C)(C(=O)N[C@@H](CCCNC(=N)N)C(=O)N[C@H](C(=O)N[C@@H](CCSC)C(=O)N[C@@H](CCCCN)C(=O)NCCCCCC(=O)N[C@@H](C)C(=O)N[C@@H](CC(C)C)C(=O)N[C@@H](C)C(=O)N2CCC[C@H]2C(=O)N[C@@H](Cc2ccc(O)cc2)C(=O)N[C@H](C(=O)N2CCC[C@H]2C(N)=O)[C@@H](C)CC)C(C)C)NC(=O)[C@H](C(C)C)NC(=O)[C@H](Cc2c[nH]cn2)NC(=O)[C@H](CCC(N)=O)NC(=O)[C@H](CC(=O)O)NC(=O)[C@H](CC(C)C)NC1=O [SAHPA1-VHLL] (Ac-PQ[R8]ILDQHV[S5]RVMK[Ahx]ALAPYIP-NH2; staple 3-10)
β-catenin (133-665)
  Kd: 55 µM

## Cc1ncsc1-c1ccc(CNC(=O)[C@@H]2C[C@@H](O)CN2C(=O)[C@@H](NC(=O)C2(C#N)CC2)C(C)(C)C)cc1 [VH-298, reference compound]
β-catenin [2]; LoVo, 100 μM inhibitor
  effect of VHL ligase inhibitor on xStAx-VHLL-mediated β-catenin degradation: blocked it
β-catenin [1]; Wnt3a CM, 70 μM xStAx-VHLL, 100 μM inhibitor, 24 h
  effect of VHL ligase inhibitor on xStAx-VHLL-mediated β-catenin degradation: blocked it

## CC[C@H](C)[C@@H]1NC(=O)[C@@](C)(NC(=O)[C@H](CCCNC(=N)N)NC(=O)[C@@H]2CCCN2C(=O)[C@H](Cc2c[nH]c3ccccc23)NC(=O)[C@H](CCCNC(=N)N)NC(=O)[C@H](CCCNC(=N)N)NC(C)=O)CCCC=CCCC[C@@](C)(C(=O)N[C@@H](Cc2c[nH]cn2)C(=O)N[C@H](C(=O)N[C@@H](CCCNC(=N)N)C(=O)N[C@@H](CCCNC(=N)N)C(=O)N[C@H](C(=O)N[C@@H](Cc2c[nH]c3ccccc23)C(=O)N[C@@H](CCCNC(=N)N)C(N)=O)C(C)C)C(C)C)NC(=O)[C@H](CC(=O)O)NC(=O)[C@H](CC(C)C)NC1=O [xStAx] (Ac-RRWPR[S5]ILD[S5]HVRRVWR-NH2; staple 6-10)
[3]
  ability to penetrate the cell membrane: capable of penetrating the cell membrane
